We go through eight compounds from ChEMBL document CHEMBL4411300 (Eur J Med Chem, 2019).

Series [1] concerns Trypanosoma cruzi. Nature of the series: Trypanocidal activity against Trypanosoma cruzi MHOM/Pe/2011/Arequipa DTU 5 epimastigotes after 48 to 72 hrs by resazurin dye based assay. Format: functional, organism-based.
Series [2] relates to Trypanosoma cruzi. The series is described as follows: Trypanocidal activity against Trypanosoma cruzi IRHOD/CO/2008/SN3 DTU 1 epimastigotes after 48 to 72 hrs by resazurin dye based assay. Format: functional, organism-based.
Series [3] deals with Trypanosoma cruzi. Nature of the series: Trypanocidal activity against Trypanosoma cruzi TINF/CH/1956/Tulahuen DTU 6 epimastigotes after 48 to 72 hrs by resazurin dye based assay. It counts as functional, organism-based.
Series [4] has as its system Vero. Nature of the series: Cytotoxicity against African green monkey Vero cells assessed as reduction in cell viability after 48 to 72 hrs by resazurin dye based assay. Conditions: Chlorocebus sabaeus.
Series [5] has as its system Trypanosoma cruzi. The series is described as follows: Trypanocidal activity against Trypanosoma cruzi MHOM/Pe/2011/Arequipa DTU 5 amastigotes infected in African green monkey Vero cells after 72 hrs by Giemsa-staining based microscopic assay. Format: functional, organism-based. Conditions: MHOM/Pe/2011/Arequipa DTU 5, Vero.
The test system of series [6] is Trypanosoma cruzi. The series is described as follows: Trypanocidal activity against Trypanosoma cruzi MHOM/Pe/2011/Arequipa DTU 5 trypomastigotes derived from infected Balb/c albino mouse after 24 hrs by resazurin dye based assay. It counts as functional, organism-based. Conditions: MHOM/Pe/2011/Arequipa DTU 5, 24 h.
Series [7] can be described thus: Selectivity index, ratio of IC50 for African green monkey Vero cells to IC50 for Trypanosoma cruzi MHOM/Pe/2011/Arequipa DTU 5 epimastigotes. It counts as toxicity. The settings on record: read-out: Ratio IC50.
The nature of series [8]: Selectivity index, ratio of IC50 for African green monkey Vero cells to IC50 for Trypanosoma cruzi MHOM/Pe/2011/Arequipa DTU 5 amastigotes infected in African green monkey Vero cells. Format: toxicity. Conditions: read-out: Ratio IC50.
Series [9] can be described thus: Selectivity index, ratio of IC50 for African green monkey Vero cells to IC50 for Trypanosoma cruzi MHOM/Pe/2011/Arequipa DTU 5 trypomastigotes derived from infected Balb/c albino mouse. It counts as toxicity. The settings on record: read-out: Ratio IC50.
Series [10] can be described thus: Selectivity index, ratio of IC50 for African green monkey Vero cells to IC50 for Trypanosoma cruzi IRHOD/CO/2008/SN3 DTU 1 epimastigotes. Format: toxicity. The settings on record: read-out: Ratio IC50.
Series [11] in a line: Selectivity index, ratio of IC50 for African green monkey Vero cells to IC50 for Trypanosoma cruzi TINF/CH/1956/Tulahuen DTU 6 epimastigotes. Format: toxicity. Conditions: read-out: Ratio IC50.
Series [12] concerns Trypanosoma cruzi. Nature of the series: Trypanocidal activity against Trypanosoma cruzi IRHOD/CO/2008/SN3 DTU 1 amastigotes infected in African green monkey Vero cells after 72 hrs by Giemsa-staining based microscopic assay. Conditions: IRHOD/CO/2008/SN3 DTU 1, Vero. It counts as functional, organism-based.
Series [13] relates to Trypanosoma cruzi. Nature of the series: Trypanocidal activity against Trypanosoma cruzi IRHOD/CO/2008/SN3 DTU 1 trypomastigotes derived from infected Balb/c albino mouse after 24 hrs by resazurin dye based assay. It counts as functional, organism-based. Conditions: IRHOD/CO/2008/SN3 DTU 1, 24 h.
In series [14] the test system is Trypanosoma cruzi. Nature of the series: Trypanocidal activity against Trypanosoma cruzi TINF/CH/1956/Tulahuen DTU 6 amastigotes infected in African green monkey Vero cells after 72 hrs by Giemsa-staining based microscopic assay. It counts as functional, organism-based. The settings on record: TINF/CH/1956/Tulahuen DTU 6, Vero.
Series [15] has as its system Trypanosoma cruzi. The series is described as follows: Trypanocidal activity against Trypanosoma cruzi TINF/CH/1956/Tulahuen DTU 6 trypomastigotes derived from infected Balb/c albino mouse after 24 hrs by resazurin dye based assay. It counts as functional, organism-based. The settings on record: TINF/CH/1956/Tulahuen DTU 6, 24 h.
Series [16] can be described thus: Selectivity index, ratio of IC50 for African green monkey Vero cells to IC50 for Trypanosoma cruzi IRHOD/CO/2008/SN3 DTU 1 amastigotes infected in African green monkey Vero cells. It counts as toxicity. The settings on record: read-out: Ratio IC50.
Series [17] can be described thus: Selectivity index, ratio of IC50 for African green monkey Vero cells to IC50 for Trypanosoma cruzi IRHOD/CO/2008/SN3 DTU 1 trypomastigotes derived from infected Balb/c albino mouse. It counts as toxicity. The settings on record: read-out: Ratio IC50.
Series [18] is described as follows: Selectivity index, ratio of IC50 for African green monkey Vero cells to IC50 for Trypanosoma cruzi TINF/CH/1956/Tulahuen DTU 6 amastigotes infected in African green monkey Vero cells. Format: toxicity. Conditions: read-out: Ratio IC50.
The nature of series [19]: Selectivity index, ratio of IC50 for African green monkey Vero cells to IC50 for Trypanosoma cruzi TINF/CH/1956/Tulahuen DTU 6 trypomastigotes derived from infected Balb/c albino mouse. Format: toxicity. The settings on record: read-out: Ratio IC50.

As for `NCCN(CCN)CCNCc1ccc2ccc3cccc4ccc1c2c34`, the IC50 in series [1] came out at 22.7 µM; in [2] it was 71 µM; in series [3], 21.9 µM; in [4], 33.4 µM.

As to `NCCCNCCN(CCNCCCN)CCNCCCN`, the IC50 came out at 128 µM in [1], 124 µM in series [2], 202 µM in series [3] and 1180 µM in [4].

With `c1ccc2c(CNCCN(CCNCc3ccnc4ccccc34)CCNCc3ccnc4ccccc34)ccnc2c1`, the IC50 in [1] amounted to 11.9 µM; in [5] it was 20.1 µM; in series [6], 14.3 µM; in [2], 25.1 µM; in series [3] it was 23.5 µM; in series [4] it was 199 µM. The selectivity ratio in [7] worked out at 16.7; in series [8], 9.9; in [9] it was 13.9; in [10], 7.9; in [11] it was 8.5.

Regarding `NCCN(CCN)CCNCc1c2ccccc2cc2ccccc12`, the IC50 in [1] stood at 29.6 µM; in series [2], 16.2 µM; in [3] it was 54.7 µM; in [4], 20.5 µM.

With `c1ccc(-c2n[nH]cc2CNCCN(CCNCc2c[nH]nc2-c2ccccc2)CCNCc2c[nH]nc2-c2ccccc2)cc1`, the IC50 in series [1] stood at 72.4 µM; in series [2], 186 µM; in [3], 88.2 µM; in series [4], 678 µM.

Turning to `NCCN(CCN)CCNCc1ccc2ccccc2c1`, the IC50 in series [1] was 42.5 µM; in [2], 8 µM; in series [12] it was 21.1 µM; in series [13], 18.4 µM; in series [3], 13.6 µM; in series [14] it was 26.4 µM. Besides, the IC50 stood at 19 µM in series [15] and 202 µM in series [4]. Further, the selectivity ratio in series [7] was 4.8; in series [10], 25.4; in [16] it was 9.6; in [17], 11; in [11], 14.8; in [18], 7.7. Besides, the selectivity ratio in series [19] is 10.6.

As to `c1ccc2cc(CNCCN(CCNCc3ccc4ccccc4c3)CCNCc3ccc4[nH]ncc4c3)ccc2c1`, the IC50 in series [1] came to 24 µM; in series [2], 15.8 µM; in series [3], 14.7 µM; in series [4], 22.3 µM.

For the compound `CN(C)c1cccc2c(S(=O)(=O)NCCN(CCN)CCN)cccc12`, the IC50 in series [1] is 65.9 µM; in series [2], 101 µM; in [3], 87.4 µM; in series [4], 137 µM.
